In series [1] the test system is Control iMSCs.
Protocol: The cytotoxicity of small-molecule IDO1 inhibitors was assessed by flow cytometry after a 48 hour incubation with Control iMSCs. Viability is shown relative to PBS controls.
The subject of series [2] is pJet promoter. The series can be described thus: Reactivation of silenced pJet promoter (GFP expression) during iPSC to iMSC differentiation. Format: cell-based, human. The following applies: 10 μM, 24 hours on day 23 of differentiation, JeT-GFP cells. An excerpt:
• 1. Transfect hiPSCs with a chromatin context-sensitive gene editing endonuclease according to some embodiments of the present disclosure, mRNA and single stranded DNA repair templates encoding GFP sequence under JeT (“pJet”) and Ef1a promoters. • 2. Perform gDNA extraction and AAVS1 surveyor PCR to confirm ssDNA repair template integration at AAVS1 locus • 3. Perform single cell sorting to obtain homogeneous cell line started from a single cell • 4. Using Stemdiff™ Mesenchymal Progenitor kit, differentiate iPS cell lines inserted with pJet and Ef1a GFP sequence in their genomes into iMSCs. • 5. Verify robust iMSC differentiation using surface marker expression at the completion of differentiation.
FIG. 16A and FIG. 16B show the tracking of GFP expression under a pJet promoter during iPSC to iMSC differentiation. […] GFP was expressed from day 18 to 30 but was completely silenced on day 33.

In series [3] the test system is COL7A1_e73 gene-editing protein pair US22 (US2L/US2R, wild-type FokI domains) (synthetic construct). In words: cell_activity. The following applies: T7E1 assay, primary human fibroblasts; 9.4% in iPSCs (p667).
Series [4] deals with COL7A1_e73 gene-editing protein pair USN1 (US2L/US2R D450A) D450A in FokI domain of right protein (D67A of SEQ 80; mutant FokI domain is SEQ 81) (synthetic construct). In words: cell_activity. The following applies: T7E1 assay, primary human fibroblasts; nickase pair, 58.7% relative insertion of 300 bp dsDNA donor vs 72.3% for US22.
In series [5] the test system is COL7A1_e73 gene-editing protein pair USN2 (US2L/US2R D450N) D450N in FokI domain of right protein (D67N of SEQ 80; mutant FokI domain is SEQ 82) (synthetic construct). In words: cell_activity. The following applies: T7E1 assay, primary human fibroblasts; 0.4% in iPSCs; nickase pair, 42.9% relative insertion of dsDNA donor in fibroblasts.
The subject of series [6] is COL7A1_e73 gene-editing protein pair USN3 (US2L/US2R D467A) D467A in FokI domain of right protein (D84A of SEQ 80; mutant FokI domain is SEQ 83) (synthetic construct). In words: cell_activity. The following applies: T7E1 assay, primary human fibroblasts; nickase pair.

“Also recorded” adds a separate entry of the source.

The record followed here is patent publication US20260146264A1, “METHODS FOR REPROGRAMMING AND GENE EDITING CELLS” (Factor Bioscience Inc., priority 2023, published 2026).

Consider `NS(=O)(=O)NCCNc1nonc1C(=NO)Nc1ccc(F)c(Br)c1` [Epacadostat], for which the “cytotoxicity (viability relative to PBS controls)” value in series [1] is “no significant difference relative to PBS”.
Take `C[C@@H](NC(=O)c1ccc(F)cc1)c1ccc2c(c1)CCN2C(=O)C1CCOCC1` [IDO1-IN-5]: the “cytotoxicity (viability relative to PBS controls)” value in series [1] is listed as “mild cytotoxicity”.
Consider `CC(/C=C/C(=O)NO)=C\[C@@H](C)C(=O)c1ccc(N(C)C)cc1` [Trichostatin A], for which the “GFP expression post TSA treatment” value in series [2] was “temporary increase in GFP expression”; in series [2] (listed as TSA) it was “noticeable increase of GFP expression; also recorded: successfully demethylated and reactivated the pJet promoter”.
As for COL7A1 exon 73 target site, the activity in series [3] was 61.9 % NHEJ/MMEJ; in series [4] it was 4.4 % NHEJ/MMEJ; in series [5], 3.1 % NHEJ/MMEJ; in series [6] it was 11.1 % NHEJ/MMEJ.
